Some test systems named below: NCI/ADR-RES ovarian; SF-268 CNS; MDA-MB-435; SNB-75 CNS; SR leukemia; HT29 colon; NCI-H226 lung; CCRF-CEM leukemia; KM12 colon; OVCAR-8 ovarian.
Holding throughout (assay): DTP human tumour cell line panel, 48 h

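Five concentrations, 48 hours, 96-well plates. GI50: concentration for 50% inhibition of growth. TGI: concentration producing complete growth inhibition.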

Broadly, the GI50 is the concentration at which growth is held to half of that of the control. For orientation: TGI means the concentration giving total growth inhibition. Regarding `Cc1[nH]c2ccccc2c1CCCO`, the GI50 with NCI/ADR-RES ovarian, in the experiment on SF-268 CNS, with MDA-MB-435, with SNB-75 CNS, in the experiment on SR leukemia and with HT29 colon was above 100000 nM each time. Also, the GI50 with NCI-H226 lung, in the experiment with CCRF-CEM leukemia, in the experiment with KM12 colon and in the experiment on OVCAR-8 ovarian was above 100000 nM throughout. Also, the TGI in the experiment on NCI/ADR-RES ovarian, in the experiment with SF-268 CNS, with MDA-MB-435, in the experiment with SNB-75 CNS, with SR leukemia and in the experiment with HT29 colon was above 100000 nM throughout. Besides, the concentration for total growth inhibition (TGI) in the experiment with NCI-H226 lung, with CCRF-CEM leukemia, in the experiment with KM12 colon and in the experiment on OVCAR-8 ovarian was above 100000 nM each time.
With `C=C(C(N)=O)c1ccc([N+](=O)[O-])o1`, the TGI in the experiment on NCI/ADR-RES ovarian was above 100000 nM; in the experiment on SF-268 CNS, 37900 nM; with MDA-MB-435, 7650 nM; with SNB-75 CNS, 37100 nM; with SR leukemia it was 36900 nM; in the experiment with HT29 colon, 30600 nM. The concentration for total growth inhibition (TGI) in the experiment with NCI-H226 lung is 49600 nM; in the experiment on CCRF-CEM leukemia, 18900 nM; with KM12 colon, 34800 nM; in the experiment with OVCAR-8 ovarian, 10600 nM.
As to `CN1CCN(C(=O)C(C)(C)c2ccc(C(=O)Nc3cn4cc(-c5ccncc5)ccc4n3)cc2)CC1`, the GI50 is 917 nM in the experiment with NCI/ADR-RES ovarian; 380 nM in the experiment on SF-268 CNS; 367 nM in the experiment with MDA-MB-435; 167 nM in the experiment with SNB-75 CNS; 135 nM with SR leukemia; 358 nM with HT29 colon. Also, the GI50 with NCI-H226 lung was 320 nM; with CCRF-CEM leukemia, 280 nM; with KM12 colon it was 175 nM; in the experiment with OVCAR-8 ovarian it was 347 nM. The TGI is above 100000 nM in the experiment on NCI/ADR-RES ovarian; 10500 nM with SF-268 CNS; 17500 nM in the experiment on MDA-MB-435; 1570 nM in the experiment on SNB-75 CNS; 4700 nM in the experiment with SR leukemia; above 94900 nM in the experiment on HT29 colon. Besides, the total growth inhibition concentration (TGI) in the experiment on NCI-H226 lung was 2510 nM; with CCRF-CEM leukemia, above 100000 nM; in the experiment on KM12 colon it was above 60300 nM; in the experiment on OVCAR-8 ovarian, above 100000 nM.
Take `COc1ccc(C/C(C)=C(/c2ccc(OCCN3CCCCC3)cc2)c2ccc(OC(=O)NCc3ccccc3)cc2)cc1`: the GI50 in the experiment with NCI/ADR-RES ovarian is 443 nM; in the experiment with SF-268 CNS it was 413 nM; with MDA-MB-435 it was 393 nM; in the experiment on SNB-75 CNS, 355 nM; in the experiment on SR leukemia, 353 nM; with HT29 colon it was 385 nM. In addition, the GI50 is 441 nM in the experiment on NCI-H226 lung, 523 nM in the experiment with CCRF-CEM leukemia, 440 nM with KM12 colon and 472 nM with OVCAR-8 ovarian. The TGI in the experiment on NCI/ADR-RES ovarian is 893 nM; in the experiment with SF-268 CNS, 787 nM; with MDA-MB-435, 736 nM; with SNB-75 CNS, 716 nM; with SR leukemia it was 1340 nM; with HT29 colon it was 841 nM. The TGI in the experiment with NCI-H226 lung was 868 nM; in the experiment with CCRF-CEM leukemia it was 1550 nM; in the experiment with KM12 colon, 826 nM; in the experiment with OVCAR-8 ovarian it was 937 nM.
Consider `O=C(Nc1cccc(-n2cc(-c3ccncc3)c(-c3ccc(Cl)c(O)c3)n2)c1)Nc1cc(C(F)(F)F)cc(C(F)(F)F)c1`, for which the GI50 in the experiment with NCI/ADR-RES ovarian was 1230 nM; with SF-268 CNS, 846 nM; with MDA-MB-435, 829 nM; with SNB-75 CNS, 896 nM; in the experiment with SR leukemia, 876 nM; in the experiment on HT29 colon, 711 nM. Also, the GI50 in the experiment with NCI-H226 lung is 1200 nM; with CCRF-CEM leukemia, 789 nM; with KM12 colon, 511 nM; in the experiment with OVCAR-8 ovarian, 563 nM. Also, the concentration for total growth inhibition (TGI) is 5670 nM with NCI/ADR-RES ovarian; 2290 nM in the experiment on SF-268 CNS; 2070 nM with MDA-MB-435; 2300 nM with SNB-75 CNS; 3220 nM with SR leukemia; 1640 nM in the experiment on HT29 colon. For the same molecule, the total growth inhibition concentration (TGI) in the experiment with NCI-H226 lung came to 5140 nM; in the experiment on CCRF-CEM leukemia it was 6780 nM; in the experiment on KM12 colon, 1350 nM; in the experiment with OVCAR-8 ovarian, 5920 nM.
For `C#CC#CC#CC#CC#CC#CC#CC#CCC1OCC(COC(=O)O[C@@H](C(=O)O[C@H]2C[C@@]3(O)[C@@H](OC(=O)c4ccccc4)[C@@H]4[C@]5(OC(C)=O)CO[C@@H]5C[C@H](O)[C@@]4(C)C(=O)[C@H](OC(C)=O)C(=C2C)C3(C)C)[C@@H](NC(=O)c2ccccc2)c2ccccc2)O1` (stereo not given in full), the GI50 was above 33300 nM in the experiment on NCI/ADR-RES ovarian; 379 nM in the experiment with SF-268 CNS; 16.7 nM with MDA-MB-435; 24.4 nM with SNB-75 CNS; 99.1 nM in the experiment with SR leukemia; 38.7 nM in the experiment on HT29 colon. For the same molecule, the GI50 is 2220 nM in the experiment with NCI-H226 lung, 191 nM in the experiment on CCRF-CEM leukemia, 98.6 nM in the experiment on KM12 colon and 187 nM in the experiment on OVCAR-8 ovarian. Besides, the TGI in the experiment with NCI/ADR-RES ovarian is above 33300 nM; in the experiment on SF-268 CNS, above 33300 nM; in the experiment on MDA-MB-435, 43.4 nM; in the experiment on SNB-75 CNS, 189 nM; in the experiment on SR leukemia it was above 33300 nM; in the experiment with HT29 colon, above 33300 nM. In addition, the TGI with NCI-H226 lung, in the experiment on CCRF-CEM leukemia, with KM12 colon and in the experiment on OVCAR-8 ovarian was above 33300 nM each time.
Regarding `Cc1cc([N+](=O)[O-])c(NS(=O)(=O)c2cccc(C(=O)O)c2)cc1-c1cccnc1`, the GI50 in the experiment with NCI/ADR-RES ovarian, in the experiment with SF-268 CNS, in the experiment on MDA-MB-435, with SNB-75 CNS, in the experiment with SR leukemia and in the experiment on HT29 colon was above 100000 nM throughout. The GI50 is above 100000 nM in the experiment with NCI-H226 lung, above 100000 nM in the experiment on CCRF-CEM leukemia, 35100 nM in the experiment on KM12 colon and above 100000 nM with OVCAR-8 ovarian. The TGI in the experiment on NCI/ADR-RES ovarian, with SF-268 CNS, in the experiment with MDA-MB-435, in the experiment on SNB-75 CNS, with SR leukemia and in the experiment with HT29 colon was above 100000 nM in each case. The TGI in the experiment with NCI-H226 lung, with CCRF-CEM leukemia, with KM12 colon and in the experiment on OVCAR-8 ovarian was above 100000 nM each time.
